# How the values were obtained:
# DCTN4_C258 = target: T1, DCTN4_C258 (Homo sapiens, UniProt Q9UJW0); assay: IA-DTB cysteine engagement; assay type: binding; conditions: 22Rv1 cells, 20 μM probe, 1 h, relative to DMSO
# T1 construct: endogenous in cells; host or cells: 22Rv1
# Description: (§1) Sample preparation: Cells (adherent: 15 cm dishes, suspension: 2 million cells/mL) were treated with electrophilic probes in situ for indicated times and concentrations, washed with ice-cold PBS, and flash frozen in liquid nitrogen. Cell pellets were lysed by sonication (8 pulses, 40% power) in 500 μL ice-cold PBS supplemented with cOmplete protease inhibitors (1 tablet/10 mL of PBS). Whole cell lysates protein content was measured using a standard DC protein assay (Bio-Rad) and 500 μL (2 mg/mL protein content) were treated with 5 μL of 10 mM 1A-DTB (in DMSO) for 1 h at ambient temperature with occasional vortexing. Samples were methanol-chloroform precipitated with the addition of 500 μL ice-cold MeOH and 200 μL CHCl3, vortexed, and centrifuged (10 min, 10,000 g). Without disrupting the protein disk, both top and bottom layers were aspirated and the protein disk was washed with 1 mL ice-cold MeOH and centrifuged (10 min, 10,000 g). The pellets were allowed to air dry, and then re-suspended in 90 μL buffer (9 M urea, 10 mM DTT, 50 mM TEAB pH 8.5). Samples were reduced by heating at 65 C for 20 minutes and water bath sonicated as needed to resuspend the protein pellets, followed by alkylation via addition of 10 μL (500 mM) iodoacetamide and incubated at 37 C for 30 min with shaking. Samples were briefly centrifuged, and probe sonicated once more to ensure complete resuspension, and then diluted with 300 μL buffer (50 mM TEAB pH 8.5) to reach final concentration of 2 M urea. Trypsin (4 μL of 0.25 μg/μL in trypsin resuspension buffer with 25 mM CaCl2)) was added to each sample and digested at 37 C for 2 h to overnight. Digested samples were then diluted with 300 μL wash buffer (50 mM TEAB pH 8.5, 150 mM NaCl, 0.2% NP-40) containing streptavidin-agarose beads (50 μL of 50% slurry in wash buffer) and were rotated at room temperature for 2 hours. Enriched samples were pelleted by centrifugation (2000 g, 2 min) and transferred to BioSpin columns and washed (3×1 mL wash buffer, 3×1 mL PBS, 3×1 mL water). Enriched peptides were eluted by 300 μL 50% acetonitrile with 0.1% formic acid and eluate was evaporated to dryness via speedvac. IA-DTB labeled and enriched peptides were resuspended in 100 μL EPPS buffer (200 mM, pH 8.0) with 30% acetonitrile, vortexed, and water bath sonicated. Samples were TMT labeled with 3 μL of corresponding TMT tag (5 mg tag resuspended in 256 μL acetonitrile), vortexed, and incubated at room temperature for 1 hour. TMT labeling was quenched with the addition of hydroxylamine (5 μL 5% solution in H2O) and incubated for 15 minutes at room temperature. Samples were then acidified with 5 μL formic acid, combined and dried using a SpeedVac. Samples were desalted via Sep-Pak and then high pH fractionated.
# (§2) Data processing: Cysteine engagement ratios (probe vs DMSO) were calculated for each peptide-spectra match by dividing each TMT reporter ion intensity by the average intensity for the channels corresponding to DMSO treatment. Peptide-spectra matches were then grouped based on protein ID and residue number (e.g., PSME1 C22), excluding peptides with summed reporter ion intensities for the DMSO channels <10,000, coefficient of variation for DMSO channels >0.5, and non-tryptic peptide sequences. TMT reporter ion intensities were normalized to the median summed signal intensity across channels.
# (§3) Filtering of cysteine data: Replicates were combined based on cell line and treatment condition (probe, concentration, duration) by averaging cysteine engagement ratios across all experiments.
# PSME1_C22 = target: T2, PSME1_C22 (Homo sapiens, UniProt Q06323); assay: IA-DTB cysteine engagement; assay type: binding; conditions: 22Rv1 cells, relative to DMSO; for % engagement PSME1_C22: 20 μM probe, 1 h; for % engagement PSME1_22: 5 μM probe, 1 h (FIG. 5B)
# T2 construct: endogenous in cells; host or cells: 22Rv1
# T2 sequence (Q06323 whole entry): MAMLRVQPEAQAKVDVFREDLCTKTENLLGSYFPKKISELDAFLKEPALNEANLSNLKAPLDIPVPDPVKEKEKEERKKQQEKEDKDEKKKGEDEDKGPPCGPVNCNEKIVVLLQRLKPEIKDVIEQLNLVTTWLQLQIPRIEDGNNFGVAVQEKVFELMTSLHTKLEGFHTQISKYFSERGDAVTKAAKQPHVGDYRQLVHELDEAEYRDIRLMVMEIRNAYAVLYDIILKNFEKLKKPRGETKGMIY
# Description: as §1, §2, §3
# DDX39A_C86 = assay: IA-DTB cysteine engagement; assay type: binding, human; conditions: 22Rv1 cells, 20 μM probe, 1 h, relative to DMSO
# Description: as §1, with “TMT labeling was quenched with the addition of hydroxylamine (5 μL 5% solution in H2O) and incubated for 15 minutes at room temperature. Samples were then acidified with 5 μL formic acid, combined and dried using a SpeedVac. Samples were desalted via Sep-Pak and then high pH fractionated.” left out
# Data processing: Cysteine engagement ratios (probe vs DMSO) were calculated for each peptide-spectra match by dividing each TMT reporter ion intensity by the average intensity for the channels corresponding to DMSO treatment. […]
# [1] = target: PSME1 and PSME2 (PA28 complex) (Homo sapiens, UniProt Q06323); assay: SEC-MS elution profile; assay type: cell-based; set-up: endogenous in cells; host or cells: 22Rv1; conditions: 22Rv1 cells, 20 μM, 3 h
# Sequence of PSME1 and PSME2 (PA28 complex) (Q06323 whole entry, the tested form may be a part, one chain of several): as the sequence (Q06323 whole entry) above
# Description: Sample preparation: Cells (adherent: 15 cm dishes, suspension: 2 million cells/mL) were treated with electrophilic probes in situ for indicated times and concentrations (elaborated fragments: 20 μM, 3 h), washed with ice-cold PBS, and flash frozen in liquid nitrogen. Cell pellets were lysed by sonication (8 pulses, 40% power) in 600 μL ice-cold PBS supplemented with cOmplete protease inhibitors (1 tablet/10 mL of PBS), ultracentrifuged for 20 min at 100,000 g, then normalized to a standardized concentration (typically 1.5 to 2.5 mg/mL). Clarified lysate was injected into a Superdex 200 Increase 10/300 GL column attached to an AKTA pure FPLC system. Proteins were fractionated using an isocratic gradient (PBS) running at 0.5 mL/min into 5 fractions 2 mL wide, beginning at 8 mL and ending at 18 mL. Eluate was collected into 15 mL tubes containing 12 mL of acetone at 4C. After completion of one set of 5 fractions, the above protocol was repeated a second time for the remaining 5 fractions. Proteins were precipitated overnight at −20 C, then spun at 4500 g for 20 minutes, yielding a white protein pellet. Acetone/PBS mixture was decanted off the pellets, which were dried at room temperature and then resuspended in 125 μL of 8 M urea, 10 mM DTT in 100 mM EPPS for 15 minutes at 65 degrees, followed by probe sonication to complete resuspension. 6.25 μL of 500 mM iodoacetamide was added to samples for alkylation (30 minutes, 37 C), followed by dilution with 370 μL of 100 mM EPPS, and addition of 2 μg trypsin per fraction, and digestion overnight at 37 C. 70 μL of tryptic digest was aliquoted into a clean microcentrifuge tube, followed by 30 μL of dry acetonitrile and 4.5 μL (5 mg/256 μL) of TMT tag in dry acetonitrile. Samples were labeled at room temperature for 75 minutes, then quenched with 6 μL of 5% hydroxylamine for 15 minutes and acidified with 5 μL of formic acid. The set of 10 samples were then combined into a single tube and evaporated by speed vac. Samples were then desalted and fractionated before analysis by mass spectrometry.
# Data processing: Fractional distributions for each peptide-spectra match with a total TMT reporter ion intensity were calculated by dividing the reporter ion intensity for each TMT channel by the summed intensity across the 5 TMT channels corresponding to a single treatment condition (Equation 1). Protein-level SEC elution profiles were then generated by averaging together all unique peptides with a summed reporter ion intensity >5,000. Two unique peptide sequences were required per-protein. Bar graph elution profiles are represented as the mean±standard error of the mean across all replicates. Euclidean distances (SE shift scores, Equation 2) were calculated using the average elution profile for each protein across replicates, combined by treatment condition and cell line. Figures reporting mean elution times used Equation 3 for calculation.
# Filtering of SEC-MS data: Replicates were combined based on cell line and treatment condition (probe, concentration, duration) by averaging SEC elution profiles for each protein across all experiments. A coefficient of variation (CV) filter was applied by taking the average the per-fraction CV across all 5 fractions. Proteins with a CV≥0.7 were removed from analysis.
# T1 sequence (Q9UJW0 whole entry): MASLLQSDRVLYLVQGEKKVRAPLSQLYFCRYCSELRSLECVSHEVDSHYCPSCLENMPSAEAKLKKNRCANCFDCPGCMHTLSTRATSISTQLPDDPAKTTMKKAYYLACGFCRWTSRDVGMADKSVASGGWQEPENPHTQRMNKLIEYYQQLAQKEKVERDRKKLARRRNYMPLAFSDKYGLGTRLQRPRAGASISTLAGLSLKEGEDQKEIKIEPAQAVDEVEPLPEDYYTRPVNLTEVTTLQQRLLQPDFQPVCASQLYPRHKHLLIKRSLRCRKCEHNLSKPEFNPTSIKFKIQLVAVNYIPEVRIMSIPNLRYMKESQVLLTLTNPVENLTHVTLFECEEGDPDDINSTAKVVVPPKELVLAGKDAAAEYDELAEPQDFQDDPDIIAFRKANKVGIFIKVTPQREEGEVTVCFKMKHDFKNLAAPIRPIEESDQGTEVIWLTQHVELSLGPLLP
SMILES,% engagement DCTN4_C258 (DCTN4_C258),% engagement PSME1_C22 (PSME1_C22),% engagement PSME1_22 (PSME1_C22),% engagement DDX39A_C86 (DDX39A_C86),SEC migration shift of PSME1 and PSME2 [1]
"C=CC(=O)N1C[C@H](c2ccc(Br)cc2)[C@@H]1C(=O)Nc1cccc2cccnc12 [MY-1B, (2R,3S)-1-acryloyl-3-(4-bromophenyl)-N-(quinolin-8-yl)azetidine-2-carboxamide]",68%,67.75%,44.38%,37%,decreased size shift
"C=CC(=O)N1C[C@H](c2ccc(Br)cc2)[C@H]1C(=O)Nc1cccc2cccnc12 [MY-3A, (2S,3S)-1-acryloyl-3-(4-bromophenyl)-N-(quinolin-8-yl)azetidine-2-carboxamide]",15.5%,−14.5%,,23.5%,None of the other azetidine acrylamide stereoisomers
"C=CC(=O)N1C[C@@H](c2ccc(Br)cc2)[C@H]1C(=O)Nc1cccc2cccnc12 [MY-1A, (2S,3R)-1-acryloyl-3-(4-bromophenyl)-N-(quinolin-8-yl)azetidine-2-carboxamide]",27.5%,−2.25%,,44.5%,None of the other azetidine acrylamide stereoisomers

# Further lines, with some results ahead:
% engagement DCTN4_C258 (DCTN4_C258),% engagement PSME1_C22 (PSME1_C22),% engagement PSME1_22 (PSME1_C22),SMILES,% engagement DDX39A_C86 (DDX39A_C86),SEC migration shift of PSME1 and PSME2 [1]
31.5%,−31.75%,,"C=CC(=O)N1C[C@H](c2ccc(Br)cc2)[C@H]1C(=O)Nc1cccc2cccnc12 [MY-3B, (2S,3S)-1-acryloyl-3-(4-bromophenyl)-N-(quinolin-8-yl)azetidine-2-carboxamide]",67.5%,None of the other azetidine acrylamide stereoisomers
,,69.50%,"CC#CC(=O)N1C[C@H](c2ccc(Br)cc2)[C@@H]1C(=O)Nc1cccc2cccnc12 [MY-45B, (2R,3S)-3-(4-bromophenyl)-1-(but-2-ynoyl)-N-(quinolin-8-yl)azetidine-2-carboxamide]",,caused the expected SEC migration shifts

# Reference: US20250034216A1, “STEREOSELECTIVE COVALENT LIGANDS FOR ONCOGENIC AND IMMUNOLOGICAL PROTEINS” (The Scripps Research Institute, priority 2021, published 2025)
